Results on 14 compounds are retold here after patent US10399940B2, “Substituted pyrrolidines and methods of use” (AbbVie S.à.r.l., priority 2016, dated 2019).

SMILES strings stand for the structures. Read-outs that look alike come from different tables or passages of the source.

The assay deals with T1, F508delCFTR (Homo sapiens, UniProt P13569, DEL508-508).
T1 construct: expressed in transfected cells; host or cells: CFBE41o- (human lung derived epithelial cell line), doxycycline-inducible expression
As to the kind of experiment: Cell Surface Expression-Horse Radish Peroxidase (CSE-HRP) assay. The following applies: CFBE41o-F508delCFTR-HRP cells; for Maximum % activity (with co-corrector): with co-corrector (2 μM); for Maximum % activity (with co-corrector) / Maximum % activity (without co-corrector): normalized to on-plate positive control, highest concentration 20 μM. It counts as cell-based. Summed up:
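CFBE41o- cells expressed F508delCFTR with HRP in the fourth exofacial loop, induced by 0.5 μg/mL doxycycline for 72 h at 37 °C. Compounds alone or with 2 μM co-corrector ran 18–24 h at 33 °C, 8-point 3-fold from 20 μM. Washed-cell luminol luminescence was normalized to DMSO and positive control, fitted sigmoidally for EC50 (three plates).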

The mark [1] stands for this setting: test compound without co-corrector, 18-24 hours at 33° C., read-out: EC50 (without co-corrector).
Where [2] appears, read: with co-corrector (2 μM of 3-[(2R,4R)-4-({[1-(2,2-difluoro-1,3-benzodioxol-5-yl)cyclopropyl]carbonyl}amino)-7-methoxy-3,4-dihydro-2H-chromen-2-yl]benzoic acid), read-out: EC50 (with co-corrector).

T1 sequence (P13569 with tags, fused parts or gaps DEL508-508): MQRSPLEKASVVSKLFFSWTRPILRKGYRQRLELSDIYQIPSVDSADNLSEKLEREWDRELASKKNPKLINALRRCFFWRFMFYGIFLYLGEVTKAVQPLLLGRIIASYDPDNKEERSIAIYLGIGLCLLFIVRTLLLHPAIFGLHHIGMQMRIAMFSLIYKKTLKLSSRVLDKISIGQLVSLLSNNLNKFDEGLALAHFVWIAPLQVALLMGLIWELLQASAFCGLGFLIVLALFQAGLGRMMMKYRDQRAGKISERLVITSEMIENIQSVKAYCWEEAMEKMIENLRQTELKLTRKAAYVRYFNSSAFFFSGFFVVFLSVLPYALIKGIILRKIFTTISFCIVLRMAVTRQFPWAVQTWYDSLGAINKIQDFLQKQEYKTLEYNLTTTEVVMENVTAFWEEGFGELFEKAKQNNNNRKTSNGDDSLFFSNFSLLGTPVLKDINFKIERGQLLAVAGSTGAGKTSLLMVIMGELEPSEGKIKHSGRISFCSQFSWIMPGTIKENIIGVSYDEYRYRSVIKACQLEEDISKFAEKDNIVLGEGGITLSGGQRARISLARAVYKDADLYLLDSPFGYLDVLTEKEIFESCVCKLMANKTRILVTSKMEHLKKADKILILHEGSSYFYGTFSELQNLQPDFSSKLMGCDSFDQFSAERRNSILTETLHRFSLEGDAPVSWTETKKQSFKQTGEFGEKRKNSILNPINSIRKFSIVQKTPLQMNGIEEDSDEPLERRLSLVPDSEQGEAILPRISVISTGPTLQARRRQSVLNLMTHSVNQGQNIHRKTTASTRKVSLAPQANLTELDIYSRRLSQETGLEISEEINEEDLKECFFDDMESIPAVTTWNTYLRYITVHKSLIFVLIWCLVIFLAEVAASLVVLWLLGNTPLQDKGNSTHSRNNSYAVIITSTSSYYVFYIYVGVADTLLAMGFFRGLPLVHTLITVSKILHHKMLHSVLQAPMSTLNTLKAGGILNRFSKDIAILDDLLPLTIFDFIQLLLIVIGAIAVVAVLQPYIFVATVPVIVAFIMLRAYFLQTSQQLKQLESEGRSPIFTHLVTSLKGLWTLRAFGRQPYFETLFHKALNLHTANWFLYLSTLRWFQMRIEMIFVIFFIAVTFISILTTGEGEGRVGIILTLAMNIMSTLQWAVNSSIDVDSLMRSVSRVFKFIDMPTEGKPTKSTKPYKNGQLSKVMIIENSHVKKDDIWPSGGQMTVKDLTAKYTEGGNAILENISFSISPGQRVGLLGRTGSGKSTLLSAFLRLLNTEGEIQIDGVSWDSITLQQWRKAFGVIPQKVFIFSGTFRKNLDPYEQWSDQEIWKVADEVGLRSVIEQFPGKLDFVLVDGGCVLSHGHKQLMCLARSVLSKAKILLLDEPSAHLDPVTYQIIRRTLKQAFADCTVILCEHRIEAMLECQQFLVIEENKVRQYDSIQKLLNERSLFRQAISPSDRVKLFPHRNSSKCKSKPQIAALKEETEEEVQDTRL

Regarding `COc1ccc(C(F)(F)F)cc1C(=O)CO[C@H]1[C@H](C(C)(C)C)[C@@H](C(=O)O)N(C(=O)[C@@H]2CCCCO2)[C@H]1c1ccccc1C` [Example 264, (2S,3R,4S,5S)-3-tert-butyl-4-{2-[2-methoxy-5-(trifluoromethyl)phenyl]-2-oxoethoxy}-5-(2-methylphenyl)-1-[(2S)-oxane-2-carbonyl]pyrrolidine-2-carboxylic acid], the “Maximum % activity (with co-corrector)” value is listed as “+++ (≥350)” and the “Maximum % activity (without co-corrector)” value is on record as “+ (<100)”. Moreover, under setting [1], the EC50 (commonly the concentration that produces a half-maximal response) is 1 to 10 µM. In addition, under setting [2], the EC50 lay in the range of 1 to 10 µM.
In the case of `COc1ncc(C2CCC2)cc1CO[C@H]1[C@H](C(C)(C)C)[C@@H](C(=O)O)N(C(=O)OC(C)C(F)(F)F)[C@H]1c1cccnc1OC(C)C` (stereo partly drawn) [Example 265, (2S,3R,4S,5S)-3-tert-butyl-4-[(5-cyclobutyl-2-methoxypyridin-3-yl)methoxy]-5-{2-[(propan-2-yl)oxy]pyridin-3-yl}-1-{[(1,1,1-trifluoropropan-2-yl)oxy]carbonyl}pyrrolidine-2-carboxylic acid], the “Maximum % activity (with co-corrector)” value was “+++ (≥350)”; the “Maximum % activity (without co-corrector)” value was “++ (≥100 and <200)”. In addition, the EC50 under setting [1] is under 1 µM. Moreover, the EC50 under setting [2] is under 1 µM.
On to `COc1ncc(C2CCC2)cc1CO[C@H]1[C@H](C(C)(C)C)[C@@H](C(=O)O)N(C(=O)O[C@H](C)C(F)(F)F)[C@H]1c1cccnc1OC(C)C` [Example 266, (2S,3R,4S,5S)-3-tert-butyl-4-[(5-cyclobutyl-2-methoxypyridin-3-yl)methoxy]-5-{2-[(propan-2-yl)oxy]pyridin-3-yl}-1-({[(2R)-1,1,1-trifluoropropan-2-yl]oxy}carbonyl)pyrrolidine-2-carboxylic acid], for which the “Maximum % activity (with co-corrector)” value is on record as “+++ (≥350)”; the “Maximum % activity (without co-corrector)” value was “++ (≥100 and <200)”. Further, the half-maximal effective concentration (EC50) under setting [1] was 1 to 10 µM. Besides, the EC50 under setting [2] is under 1 µM.
For `COc1ncc(C2CCC2)cc1CO[C@H]1[C@H](C(C)(C)C)[C@@H](C(=O)O)N(C(=O)O[C@@H](C)C(F)(F)F)[C@H]1c1cccnc1OC(C)C` [Example 267, (2S,3R,4S,5S)-3-tert-butyl-4-[(5-cyclobutyl-2-methoxypyridin-3-yl)methoxy]-5-{2-[(propan-2-yl)oxy]pyridin-3-yl}-1-({[(2S)-1,1,1-trifluoropropan-2-yl]oxy}carbonyl)pyrrolidine-2-carboxylic acid], the “Maximum % activity (with co-corrector)” value is reported as “+++ (≥350)”; the “Maximum % activity (without co-corrector)” value is “++ (≥100 and <200)”. The EC50 under setting [1] is 1 to 10 µM. Further, the EC50 under setting [2] was under 1 µM.
Regarding `COc1ccc(C(F)(F)F)cc1C(O)CO[C@H]1[C@H](C(C)(C)C)[C@@H](C(=O)O)N(C(=O)[C@@H]2CCCCO2)[C@H]1c1ccccc1C` (stereo partly drawn) [Example 268, (2S,3R,4S,5S)-3-tert-butyl-4-{2-hydroxy-2-[2-methoxy-5-(trifluoromethyl)phenyl]ethoxy}-5-(2-methylphenyl)-1-[(2S)-oxane-2-carbonyl]pyrrolidine-2-carboxylic acid], the “Maximum % activity (with co-corrector)” value is reported as “+++ (≥350)” and the “Maximum % activity (without co-corrector)” value is “+ (<100)”. Moreover, the EC50 under setting [1] was 1 to 10 µM. The EC50 under setting [2] fell in the range of 1 to 10 µM.
Turning to `COc1ccc(C(F)(F)F)cc1C(CO[C@H]1[C@H](C(C)(C)C)[C@@H](C(=O)O)N(C(=O)[C@@H]2CCCCO2)[C@H]1c1ccccc1C)OC` (stereo partly drawn) [Example 269, (2S,3R,4S,5S)-3-tert-butyl-4-{2-methoxy-2-[2-methoxy-5-(trifluoromethyl)phenyl]ethoxy}-5-(2-methylphenyl)-1-[(2S)-oxane-2-carbonyl]pyrrolidine-2-carboxylic acid], the “Maximum % activity (with co-corrector)” value is listed as “+++ (≥350)” and the “Maximum % activity (without co-corrector)” value was “+++ (≥200)”. Also, the EC50 under setting [1] lay in the range of 1 to 10 µM. Besides, the EC50 under setting [2] is under 1 µM.
`COc1ccc(C(C)(C)C)cc1CO[C@H]1[C@H](C(C)(C)OC)[C@@H](C(=O)O)N(C(=O)[C@@H]2CCCCO2)[C@H]1c1ccccc1C(C)C` [Example 270, (2S,3R,4S,5S)-4-[(5-tert-butyl-2-methoxyphenyl)methoxy]-3-(2-methoxypropan-2-yl)-1-[(2S)-oxane-2-carbonyl]-5-[2-(propan-2-yl)phenyl]pyrrolidine-2-carboxylic acid]: the “Maximum % activity (with co-corrector)” value is listed as “+++ (≥350)” and the “Maximum % activity (without co-corrector)” value is given as “+++ (≥200)”. For the same compound, under setting [1], the EC50 was under 1 µM. Moreover, the EC50 under setting [2] is under 1 µM.
For `COc1ncc(C(F)(F)F)cc1CO[C@H]1[C@H](C(C)(C)C)[C@@H](C(=O)O)N(C(=O)O[C@@H](C)C(F)(F)F)[C@H]1c1cccnc1OC(C)C` [Example 271, (2S,3R,4S,5S)-3-tert-butyl-4-{[2-methoxy-5-(trifluoromethyl)pyridin-3-yl]methoxy}-5-{2-[(propan-2-yl)oxy]pyridin-3-yl}-1-({[(2S)-1,1,1-trifluoropropan-2-yl]oxy}carbonyl)pyrrolidine-2-carboxylic acid], the “Maximum % activity (with co-corrector)” value is given as “+++ (≥350)”; the “Maximum % activity (without co-corrector)” value was “++ (≥100 and <200)”. Further, the EC50 under setting [1] is under 1 µM. In addition, the EC50 under setting [2] is under 1 µM.
With `COc1ccc(C(F)(F)F)cc1[C@@H](C)CO[C@H]1[C@H](C(C)(C)C)[C@@H](C(=O)O)N(C(=O)[C@@H]2CCCCO2)[C@H]1c1ccccc1C` [Example 272, (2S,3R,4S,5S)-3-tert-butyl-4-{(2R)-2-[2-methoxy-5-(trifluoromethyl)phenyl]propoxy}-5-(2-methylphenyl)-1-[(2S)-oxane-2-carbonyl]pyrrolidine-2-carboxylic acid], the “Maximum % activity (with co-corrector)” value is “+++ (≥350)” and the “Maximum % activity (without co-corrector)” value was “+++ (≥200)”. Under setting [1], the EC50 was under 1 µM. The EC50 under setting [2] is under 1 µM.
Turning to `COc1ccc(C(F)(F)F)cc1[C@H](C)CO[C@H]1[C@H](C(C)(C)C)[C@@H](C(=O)O)N(C(=O)[C@@H]2CCCCO2)[C@H]1c1ccccc1C` [Example 273, (2S,3R,4S,5S)-3-tert-butyl-4-{(2S)-2-[2-methoxy-5-(trifluoromethyl)phenyl]propoxy}-5-(2-methylphenyl)-1-[(2S)-oxane-2-carbonyl]pyrrolidine-2-carboxylic acid], the “Maximum % activity (with co-corrector)” value is “+++ (≥350)” and the “Maximum % activity (without co-corrector)” value is given as “+++ (≥200)”. For the same compound, the EC50 under setting [1] is under 1 µM. The EC50 under setting [2] was under 1 µM.
In the case of `COc1ccc(C(C)(C)C)cc1CO[C@H]1[C@H](C(C)(C)C)[C@@H](C(=O)O)N(C(=O)O[C@@H](C)C(F)(F)F)[C@H]1c1cccnc1OC(C)C` [Example 274, (2S,3R,4S,5S)-3-tert-butyl-4-[(5-tert-butyl-2-methoxyphenyl)methoxy]-5-{2-[(propan-2-yl)oxy]pyridin-3-yl}-1-({[(2S)-1,1,1-trifluoropropan-2-yl]oxy}carbonyl)pyrrolidine-2-carboxylic acid], the “Maximum % activity (with co-corrector)” value was “+++ (≥350)” and the “Maximum % activity (without co-corrector)” value is “+++ (≥200)”. Further, under setting [1], the EC50 was under 1 µM. In addition, the EC50 under setting [2] was under 1 µM.
In the case of `COc1ncc(C2CCC2)cc1CO[C@H]1[C@H](C(C)(C)C)[C@@H](C(=O)O)N(C(=O)C2(C(F)(F)F)CC2)[C@H]1c1cccnc1OC(C)C` [Example 275, (2S,3R,4S,5S)-3-tert-butyl-4-[(5-cyclobutyl-2-methoxypyridin-3-yl)methoxy]-5-{2-[(propan-2-yl)oxy]pyridin-3-yl}-1-[1-(trifluoromethyl)cyclopropane-1-carbonyl]pyrrolidine-2-carboxylic acid], the “Maximum % activity (with co-corrector)” value is “++ (≥150 and <350)”; the “Maximum % activity (without co-corrector)” value is “+ (<100)”. The EC50 under setting [1] is over 10 µM. Besides, under setting [2], the EC50 lay in the range of 1 to 10 µM.
For `COc1ncc(C2CCC2)cc1CO[C@H]1[C@H](C(C)(C)C)[C@@H](C(=O)O)N(C(=O)C2(C(F)(F)F)CCCC2)[C@H]1c1cccnc1OC(C)C` [Example 276, (2S,3R,4S,5S)-3-tert-butyl-4-[(5-cyclobutyl-2-methoxypyridin-3-yl)methoxy]-5-{2-[(propan-2-yl)oxy]pyridin-3-yl}-1-[1-(trifluoromethyl)cyclopentane-1-carbonyl]pyrrolidine-2-carboxylic acid], the “Maximum % activity (with co-corrector)” value was “++ (≥150 and <350)”; the “Maximum % activity (without co-corrector)” value is recorded as “+ (<100)”. Moreover, the EC50 under setting [1] was over 10 µM. For the same compound, the EC50 under setting [2] was under 1 µM.
In the case of `COc1ncc(C(F)(F)F)cc1C#CCO[C@H]1[C@H](C(C)(C)C)[C@@H](C(=O)O)N(C(=O)OC(C)C)[C@H]1c1ccccc1` [Example 277, (2S,3R,4S,5S)-3-tert-butyl-4-({3-[2-methoxy-5-(trifluoromethyl)pyridin-3-yl]prop-2-yn-1-yl}oxy)-5-phenyl-1-{[(propan-2-yl)oxy]carbonyl}pyrrolidine-2-carboxylic acid], the “Maximum % activity (with co-corrector)” value is listed as “+++ (≥350)” and the “Maximum % activity (without co-corrector)” value is “+ (<100)”. Besides, under setting [1], the EC50 is under 1 µM. Besides, the EC50 under setting [2] was under 1 µM.
